Columns and labels:
[1] = tested on: CREB; conditions: after 5 minutes stimulation (not shown)
Procedure: The cyclic AMP-responsive element binding protein (CREB) is a post-translationally activated transcription factor that has been implicated in numerous neuronal functions including cell survival, differentiation and neurotransmission.
Approximately 7.5×10^5 PC12 cells per well were plated in collagen coated 6-well plates in DMEM with 0.75% FCS and 0.75% DHS and incubated for 48 hours. Cells were then further starved for 2 hours in serum free DMEM before stimulation with the indicated compounds for 5, 10 or 20 minutes. Cells were harvested in 1× heated sample buffer (2% SDS, 400 mM Tris, pH 8.0, 10 mM DTT and 0.25 mM Na3VO4) and the cell lysates were electrophoresed on 8-18% gradient SDS gels, which were electroblotted to PVDF membranes.
Phosphorylated CREB were immunodetected by using rabbit anti-Phospho-CREB (UpState Biotechnology #06-519) followed by HRP-linked anti-rabbit antibody (Amersham Life Science #NA 934). Bands were detected by chemilumininescence using the ECL system (Amersham).

[2] = tested on: dopaminergic neurons from rat E14 ventral mesencephali; conditions: 1 μM; E14 rat VM; 7 days in culture
Procedure: Embryonic rat brains (Wistar; E14) were isolated under sterile conditions placed in chilled Gey's balanced salt solution (GIBCO) with glucose (6.5 mg/ml).
The ventral mesencephali were dissected out, cut into small tissue pieces, placed in Neurobasal medium with B27 supplement and gently pressed through a 80 μm Nitex filter. The cells were counted using a hemocytometer and plated in a 6 well multi-dish at a density of approximately 2.0×10^6 cells/well. Culture dishes were pre-coated with poly-D-lysine.
After 1 hour, the medium was removed and fresh medium added (1.5 ml/well). […] Untreated cultures served as controls. The medium was changed every other day and antimitotics and antibiotics were not used at any stage.
After 7 days in culture, cultures were then immunostained for tyrosine hydroxylase (TH). Briefly, the cells were washed in 0.05M tris-buffered saline (TBS, pH 7.4) containing 1% Triton X-100 for 3×15 minutes and incubated with 10% foetal bovine serum (FBS, Life Technologies) in TBS for 30 minutes. The cells were then incubated for 24 hours at 4° C. with monoclonal mouse anti-TH antibody (Boehringer Mannheim) diluted 1:600 in TBS with 10% FBS. After rinsing in TBS with 1% Triton X-100 for 3×15 minutes, cells were incubated for 60 minutes with biotinylated anti-mouse IgG antibody (Amersham) diluted 1:200 in TBS with 10% FBS. […] TH-immunoreactive (ir) cells were counted manually.

[3] = tested on: PC12 cells; assay: Survival of differentiated PC12 cells in serum-free medium (MTS); assay type: cell-based; conditions: for Survival Effects on Differentiated PC12 Cells in Serum-free Medium (% of 3 nM NGF): 4 days incubation, MTS; for Rescue of PC12 cells in serum-free medium: viability as reduction of MTS
Procedure: In this experiment the protective effect of the compounds on the survival of the pheochromocytoma cell line PC12 deprived of other survival factors were assessed following differentiation of the cells to a neuron-like phenotype.
Cells were seeded in collagen coated 96 well plates at a cell density of 8,000/cm^2 in DMEM with 7.5% Foetal Calf Serum (FCS), 7.5% Donor Horse Serum (DHS) and 2 nM NGF and cultured for 6 days. The medium was then changed to DMEM without serum supplemented with the compound in the indicated concentrations. As a positive control, parallel wells receiving serum-free DMEM without addition of vehicle […] 3 nM NGF were included.
After 4 days of incubation, cell viability was evaluated by using MTS (3-(4,5-dimethylthiazol-2-yl)-5-(3-carboxymethoxyphenyl)-2-(4-sulfonyl)2H-tetrazolium) which is reduced by metabolically active cells. Data are expressed as % of the response seen with 3 nM NGF corrected for residual MTS reduction activity in the parallel serum-free cultures (“% of NGF control”).

[4] = tested on: dopaminergic neurons from pig E28 ventral mesencephali; conditions: 1 μM; E28 pig VM slice cultures; 21 days in vitro
Procedure: Ventral mesencephali (VM) were isolated from porcine embryos (E28) under sterile conditions, chopped into 400 μm slices and placed in chilled Gey's balanced salt solution (GIBCO) with glucose (6.5 mg/ml).
In brief, slices were placed on semiporous membranes (Millipore, 0.3 μm; 4 slices/membrane) placed as inserts in 6-well plates (Costar) with serum containing medium (Gibco BRL). Each well contained 1 ml medium (50% Optimem, 25% horse serum, 25% Hank's balanced salt solution (all GIBCO)) supplemented with D-glucose to a final concentration of 25 mM.
At day 3, the medium was replaced by defined serum-free medium (Neurobasal medium with B27 supplement from Life Technologies). The cultures were grown in an incubator with 5% CO2 at 36° C. for 21 days after which the sections were immunostained for TH as described in Example 4. […] Untreated cultures served as controls. The medium was changed twice a week and antimitotics and antibiotics were not used at any stage.
The area of the culture slice was delineated and a counting frame was randomly placed to mark the first area to be sampled.

[5] = tested on: PC12 cells; conditions: two days
Procedure: In this experiment the ability of the compounds to potentiate NGF-induced neurite outgrowth in PC12 cells was assessed.
PC12 cells were seeded in tissue culture plates coated with collagen at a cell density of 15,000/cm^2 in DMEM with 7.5% FCS and 7.5% DHS. Next day the medium was changed to medium supplemented with the NS compound in the absence or presence of NGF.
Two days after the medium change, cells were fixed in 4% paraformaldehyde and stained for neurofilament. Cells were fixed by in tissue culture plates by incubation in 4% paraformaldehyde in PBS followed permeabilization in 0.05% Triton-X100 in the presence of 10% DHS to block non-specific binding sites. After washing, the plates were incubated with anti-neurofilament (NF) antibody (clone RT97) from Boehringer diluted 1:200 in 0.05% Triton-X100/10% DHS followed by incubation with biotinylated anti-mouse immunoglobulin RPN1001 (Amersham) diluted 1:200. NF-immunoreactive cells were stained using the ABC-complex/HRP kit K0355 (DAKO) and 3,3-diaminobenzidine tetrahydrochloride (DAB) as substrate.
Estimation of total cell number per well, as well as the total neurite length was done using unbiasedly 2D stereology (CAST-grid system connected to a Olympus BH-2 microscope).

[6] = tested on: the ERKs (ERK1 and ERK2); conditions: 1-3 μM; PC12 cells; 24 hours with NGF
Procedure: (§1) Approximately 200,000 PC12 cells were plated in a 24 well plate in DMEM with 7.5% FCS and 7.5% DHS and incubated ON.
(§2) Total cell lysate was electrophoresed on 8-18% gradient SDS gels which were electroblotted to PVDF membranes. Phosphorylated ERK1 and ERK2 were immunodetected by using mouse anti-Phospho-p44/p42 MAP kinase E10 mAb (New England Biolabs #9106) and HRP-linked anti-mouse antibody. Phosphorylated Akt kinase was immunodetected by using rabbit phospho-specific Akt (Ser473) antibody (New England Biolabs # 9271) and HRP-linked anti-rabbit antibody. Bands were detected by chemilumininescence using the ECL system (Amersham).

[7] = tested on: Akt kinase; conditions: 1-3 μM; PC12 cells; 24 hours with NGF
Procedure: as §1, §2

[8] = tested on: transient global ischaemia in gerbils (hippocampal CA1-layer damage); conditions: gerbil; 4 minutes ischaemia; 2×30 mg/kg ip. after the insult; four days later
Procedure: Gerbils were anaesthetised with halothane, right and left carotid arteries located and occluded for 4 minutes. Animals were kept at normal body temperature before and after the operation using heating lamps. During the operation, the gerbils were placed on heating pads, the body temperature was controlled and maintained at 37±0.5° C.
Four days later, the animals were sacrificed, brains removed and cooled to −70° C. Thereafter, the brains were sectioned in 20 μm thick sections of which 5-7 with hippocampal tissue were selected and stained with hematoxylin-eosin.
The degree of hippocampal damage was categorised into one of four groups:
Group 1: no damage in the CA1-layer;
Group 2: the CA1-layer partly damaged;
Group 3: the CA1-layer completely damaged; and
Group 4: damage in more then just the CA1-layer. The total ischaemia score was obtained as the sum of scores in the right- and left hemisphere. Kendall's tau test was used for statistic evaluation.

CN1CCc2c(-c3ccc(Cl)cc3)cc3c(c2C1)NC(=O)C3=NO.Cl [Compound G-1, 5-(4-Chlorophenyl)-8-methyl-6,7,8,9-tetrahydro-1-H-pyrrolo[3.2-h]isoquinoline-2,3-dione-3-oxime hydrochloric acid salt]
Combined effect of NGF and compound on CREB phosphorylation [1]: additive effect | More TH-immunoreactive cells compared to untreated control cultures [2]: 81% | Survival Effects on Differentiated PC12 Cells in Serum-free Medium (% of 3 nM NGF) ([3]; 0.1 μM): 11.09 ± 1.42 % of 3 nM NGF | Survival Effects on Differentiated PC12 Cells in Serum-free Medium (% of 3 nM NGF) ([3]; 0.2 μM): 12.78 ± 2.01 % of 3 nM NGF | Survival Effects on Differentiated PC12 Cells in Serum-free Medium (% of 3 nM NGF) ([3]; 0.5 μM): 28.62 ± 1.77 % of 3 nM NGF | Survival Effects on Differentiated PC12 Cells in Serum-free Medium (% of 3 nM NGF) ([3]; 0.75 μM): 32.05 ± 3.36 % of 3 nM NGF | Survival Effects on Differentiated PC12 Cells in Serum-free Medium (% of 3 nM NGF) ([3]; 1 μM): 52.60 ± 3.40 % of 3 nM NGF | Survival Effects on Differentiated PC12 Cells in Serum-free Medium (% of 3 nM NGF) ([3]; 2 μM): 60.47 ± 2.26 % of 3 nM NGF | Survival Effects on Differentiated PC12 Cells in Serum-free Medium (% of 3 nM NGF) ([3]; 5 μM): 74.85 ± 4.67 % of 3 nM NGF | Survival Effects on Differentiated PC12 Cells in Serum-free Medium (% of 3 nM NGF) ([3]; 7.5 μM): 62.08 ± 3.70 % of 3 nM NGF | Survival Effects on Differentiated PC12 Cells in Serum-free Medium (% of 3 nM NGF) ([3]; 10 μM): 63.80 ± 4.09 % of 3 nM NGF | Rescue of PC12 cells in serum-free medium [3]: dose-dependent rescue | More TH-immunoreactive cells compared to untreated control cultures [4]: 37% | Effect on neurite outgrowth in PC12 cells, compound alone ([5]; 1 and 3 μM, without NGF): some effect on neurite outgrowth | Potentiation of NGF-induced neurite outgrowth in PC12 cells ([5]; with NGF): significantly potentiate NGF-induced neurite outgrowth | Effect on NGF-induced phosphorylation of the ERKs [6]: potentiate NGF-induced phosphorylation | Effect on NGF-induced phosphorylation of the Akt kinase [7]: potentiate NGF-induced phosphorylation

O=C1Nc2ccc(-c3ccc(Cl)cc3)cc2C1=NO [Compound G-3, 5-(4-Chlorophenyl)isatin-3-oxime]
Survival Effects on Differentiated PC12 Cells in Serum-free Medium (% of 3 nM NGF) ([3]; 0.1 μM): −0.34 ± 1.59 % of 3 nM NGF | Survival Effects on Differentiated PC12 Cells in Serum-free Medium (% of 3 nM NGF) ([3]; 0.2 μM): 23.83 ± 3.61 % of 3 nM NGF | Survival Effects on Differentiated PC12 Cells in Serum-free Medium (% of 3 nM NGF) ([3]; 0.5 μM): 28.20 ± 2.55 % of 3 nM NGF | Survival Effects on Differentiated PC12 Cells in Serum-free Medium (% of 3 nM NGF) ([3]; 0.75 μM): 30.66 ± 3.83 % of 3 nM NGF | Survival Effects on Differentiated PC12 Cells in Serum-free Medium (% of 3 nM NGF) ([3]; 1 μM): 36.11 ± 3.02 % of 3 nM NGF | Survival Effects on Differentiated PC12 Cells in Serum-free Medium (% of 3 nM NGF) ([3]; 2 μM): 41.53 ± 3.00 % of 3 nM NGF | Survival Effects on Differentiated PC12 Cells in Serum-free Medium (% of 3 nM NGF) ([3]; 5 μM): 49.63 ± 4.67 % of 3 nM NGF | Survival Effects on Differentiated PC12 Cells in Serum-free Medium (% of 3 nM NGF) ([3]; 7.5 μM): 67.60 ± 5.54 % of 3 nM NGF | Survival Effects on Differentiated PC12 Cells in Serum-free Medium (% of 3 nM NGF) ([3]; 10 μM): 72.23 ± 4.34 % of 3 nM NGF | Rescue of PC12 cells in serum-free medium [3]: dose-dependent rescue

Cl.O=C1Nc2c(cc(-c3ccc(Cl)cc3)c3c2CCCC3)C1=NO [Compound G-2, 5-(4-Chlorophenyl)-6,7,8,9-tetrahydro-1-H-pyrrolo[3.2-h]naphthalene-2,3-dione-3-oxime hydrochloric acid salt]
Survival Effects on Differentiated PC12 Cells in Serum-free Medium (% of 3 nM NGF) ([3]; 0.1 μM): 7.77 ± 1.86 % of 3 nM NGF | Survival Effects on Differentiated PC12 Cells in Serum-free Medium (% of 3 nM NGF) ([3]; 0.2 μM): 16.58 ± 4.36 % of 3 nM NGF | Survival Effects on Differentiated PC12 Cells in Serum-free Medium (% of 3 nM NGF) ([3]; 0.5 μM): 17.30 ± 4.43 % of 3 nM NGF | Survival Effects on Differentiated PC12 Cells in Serum-free Medium (% of 3 nM NGF) ([3]; 0.75 μM): 23.54 ± 1.60 % of 3 nM NGF | Survival Effects on Differentiated PC12 Cells in Serum-free Medium (% of 3 nM NGF) ([3]; 1 μM): 27.63 ± 6.91 % of 3 nM NGF | Survival Effects on Differentiated PC12 Cells in Serum-free Medium (% of 3 nM NGF) ([3]; 2 μM): 33.31 ± 5.22 % of 3 nM NGF | Survival Effects on Differentiated PC12 Cells in Serum-free Medium (% of 3 nM NGF) ([3]; 5 μM): 50.25 ± 4.28 % of 3 nM NGF | Survival Effects on Differentiated PC12 Cells in Serum-free Medium (% of 3 nM NGF) ([3]; 7.5 μM): 54.83 ± 4.37 % of 3 nM NGF | Survival Effects on Differentiated PC12 Cells in Serum-free Medium (% of 3 nM NGF) ([3]; 10 μM): 74.66 ± 5.70 % of 3 nM NGF | Rescue of PC12 cells in serum-free medium [3]: dose-dependent rescue | Animals with no or only partially damage in the CA1 neurons of the hippocampus [8]: ≈ 50%
